Results reported in US20150139901A1, “Radioactive Rhodium Complexes, Preparation Methods and Uses Thereof” (Institut National de la Sante et de la Recherche Medicale …, priority 2012, published 2015).

Assay: Stability test in human serum (15 h incubation, TLC control of supernatant)
Assay type: in vitro ADME
Conditions: controlled by TLC
Description: The compound of Example 4 (7.5-10.5 MBq) was prepared according to the previously described procedure. The resulting organic solution was evaporated until the final volume was about 50 μL. The complex was purified by silica gel chromatography using DCM/MeOH (99/1) as mobile phase. Activity was counted for each 500 μL aliquots and fractions of interest were concentrated under nitrogen flux. One ml of human serum was then added. The solution was gently stirred and divided into two aliquots incubated 15 h. respectively at 4° C. and 37° C. Then, serum proteins were precipitated by adding 750 μl of organic solvents mixture (ACN/DCM 100/1). Supernatant was separated by centrifugation at 4000 rpm and controlled by TLC.

Substance: (^211At)(1-benzyl-3-(4-nitrophenyl)imidazolidene)(cyclooctadiene) rhodium(+I) [Example 4]
- degradation in human serum (incubated 15 h, result sentence prints 30° C. (method: 37° C.)): No degradation
- degradation in human serum (incubated 15 h at 4° C.): No degradation
